Literature values as cited in patent US20100048608A1, “Histone Deacetylase Inhibitors for the Treatment of Ocular Neovascular or Edematous Disorders and Diseases” (ALCON, INC., priority 2002, published 2010).

What was measured:
cancer cell [1] = conditions: Munster et al. 2001
tumors = conditions: Butler et al. 2000
cancer cell [2] = conditions: Butler et al. 2002
[3] = phase I clinical trials; Kelly et al. 2001
[4] = system: corneal neovascularization; conditions: in combination with a beta cyclodextrin; Li et al. 1991

O=C(CCCCCCC(=O)Nc1ccccc1)NO [SAHA, suberoylanilide hydroxamic acid]
induction of cancer cell differentiation (cancer cell [1]): potent inducer of cancer cell differentiation
effect on tumors in animal models (tumors): shrink tumors in animal models
cancer cell growth in vitro (cancer cell [2]): arrest cancer cell growth in vitro
dose-limiting toxicity [3]: almost no dose-limiting toxicity
suppression of white blood cell production [3]: no suppression of white blood cell production

C[C@]12CCC(=O)C=C1CC[C@@H]1[C@@H]2[C@@H](O)C[C@@]2(C)[C@H]1CC[C@]2(O)C(=O)CO [hydrocortisone]
inhibition of corneal neovascularization [4]: inhibit corneal neovascularization

C[C@@H]1C[C@H]2[C@@H]3C[C@H](F)C4=CC(=O)CC[C@]4(C)C3=CC[C@]2(C)[C@@]1(O)C(=O)CO [U-72,745G]
inhibition of corneal neovascularization [4]: inhibit corneal neovascularization

C[C@]12CC[C@@H](O)C[C@H]1CC[C@@H]1[C@@H]2CC[C@@]2(C)[C@H]1CC[C@]2(O)C(=O)CO [tetrahydrocortisol-S]
inhibition of corneal neovascularization [4]: inhibit corneal neovascularization
